The text below walks through data of US11723908B2, “Quinazoline derivatives as antitumor agents” (SUZHOU ZANRONG PHARMA LIMITED, priority 2018, dated 2023).

Chain of HER2 (P04626 23-1255): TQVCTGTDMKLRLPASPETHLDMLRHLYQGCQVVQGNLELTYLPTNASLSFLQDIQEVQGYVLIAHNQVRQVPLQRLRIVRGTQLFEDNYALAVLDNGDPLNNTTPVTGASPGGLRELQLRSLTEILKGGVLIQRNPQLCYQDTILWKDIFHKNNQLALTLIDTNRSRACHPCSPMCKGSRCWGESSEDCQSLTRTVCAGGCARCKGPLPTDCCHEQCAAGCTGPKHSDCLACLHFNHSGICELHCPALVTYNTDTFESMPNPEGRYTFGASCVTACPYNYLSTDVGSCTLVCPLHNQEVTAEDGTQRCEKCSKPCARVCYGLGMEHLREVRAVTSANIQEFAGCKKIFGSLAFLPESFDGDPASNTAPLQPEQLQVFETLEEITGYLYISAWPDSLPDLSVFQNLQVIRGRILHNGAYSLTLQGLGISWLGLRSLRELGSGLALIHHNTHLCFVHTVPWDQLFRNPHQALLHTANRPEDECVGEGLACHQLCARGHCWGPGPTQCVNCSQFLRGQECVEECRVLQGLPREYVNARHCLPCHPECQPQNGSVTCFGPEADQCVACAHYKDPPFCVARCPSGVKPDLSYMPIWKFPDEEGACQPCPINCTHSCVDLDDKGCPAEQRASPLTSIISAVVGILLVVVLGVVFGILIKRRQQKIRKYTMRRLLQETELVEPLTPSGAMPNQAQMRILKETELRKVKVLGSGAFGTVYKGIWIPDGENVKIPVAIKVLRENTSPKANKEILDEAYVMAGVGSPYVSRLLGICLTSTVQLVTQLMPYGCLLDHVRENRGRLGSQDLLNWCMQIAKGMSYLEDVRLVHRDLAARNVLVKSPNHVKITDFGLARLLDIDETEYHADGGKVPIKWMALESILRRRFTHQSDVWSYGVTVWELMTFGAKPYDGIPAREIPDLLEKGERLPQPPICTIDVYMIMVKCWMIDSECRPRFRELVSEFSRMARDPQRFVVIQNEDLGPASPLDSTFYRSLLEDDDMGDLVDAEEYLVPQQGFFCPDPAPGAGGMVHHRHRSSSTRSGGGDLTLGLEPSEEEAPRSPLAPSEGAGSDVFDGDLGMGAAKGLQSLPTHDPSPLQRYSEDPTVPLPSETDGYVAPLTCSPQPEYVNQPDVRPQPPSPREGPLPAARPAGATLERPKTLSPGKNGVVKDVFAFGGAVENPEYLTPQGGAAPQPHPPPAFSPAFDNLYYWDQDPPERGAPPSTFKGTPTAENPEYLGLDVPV

This assay addresses HER2 (Homo sapiens (Human), UniProt P04626). In words: BT474 cellular assay (HER2 inhibition), phospho-HER2 ELISA. The assay is classed as cell-based. The conditions noted are these: inhibition of phosphor HER2, BT474 cells, 2 hours compound incubation. Here is the method:
Assay a) BT474 Cellular Assay (HER2 Inhibition) Inhibition of phosphor HER2 was determined by enzyme-linked immunosorbent assay (ELISA) in BT474 cells. BT474 cell line was purchased from [NT] number HTB-20). Human Phospho-ErbB2 ELISA kit was purchased from R&D systems (catalog number DYC1768). Day 1: When the cells reach 70-90% confluence, cells were trypsinized and re-suspended. 5000 cells per well were seeded to a 384-well plate. The plate was incubated at 37° C. with 5% CO2 for 24 hours. ELISA plate was coated with 2 μg/ml capture antibody, which was incubated at 4° C. overnight. Day 2: 25 nl compounds was dosed by Echo from source plate and the 384-well plate was incubated at 37° C. for 2 hours. 30 μl lysis buffer was added to each well and the 384-well plate was shaken softly at 4° C. for 30 minutes. The ELISA plate was washed, blocked and incubated at room temperature for 1-2 hours. The blocked ELISA plate was washed and 20 μl cell lysate was transferred from the 384-well plate to the ELISA plate, which was incubated overnight at 4° C. Day 3: The ELISA plate was washed 3 times. 25 μl/well detection antibody was added (diluted 1 by 2000 in 1% BSA in PBS). After 2 hours of incubation with detection antibody, the ELISA plate was washed 3 times, 25 μl/well TMB substrate was added and incubated for 10-15 minutes before stop solution was added. Absorbance at 450 nm and 570 nm was read within 30 minutes after adding the stop solution. […] The IC50 results are provided in Table 1 for some exemplary compounds.
(An ELISA detects its analyte on a solid surface through an enzyme-linked reagent.)
Broadly, the IC50 is the concentration at which inhibition is half-maximal. Compound `Cc1cc(Nc2ncnc3ccc(O[C@H]4CCOC4)c(O[C@H]4CCN(C)CC4(F)F)c23)ccc1Oc1cc2ncnn2cn1` [Example 22, N-(4-([1,2,4]triazolo[1,5-c]pyrimidin-7-yloxy)-3-methylphenyl)-5-(((S)-3,3-difluoro-1-methylpiperidin-4-yl)oxy)-6-(((S)-tetrahydrofuran-3-yl)oxy)quinazolin-4-amine] had an IC50 of 21 nM. For the compound `Cc1cc(Nc2ncnc3ccc(OC(C)C)c(O[C@H]4CCN(C)CC4(F)F)c23)ccc1Oc1cc2ncnn2cn1` [Example 30, (S)—N-(4-([1,2,4]triazolo[1,5-c]pyrimidin-7-yloxy)-3-methylphenyl)-5-((3,3-difluoro-1-methylpiperidin-4-yl)oxy)-6-isopropoxyquinazolin-4-amine], the IC50 was 20 nM. The result for `Cc1cc(Nc2ncnc3ccc(OC(F)(F)F)c(O[C@@H]4CCN(C)CC4(F)F)c23)ccc1Oc1cc2ncnn2cn1` [Example 72, (R)—N-(4-([1,2,4]-triazolo[1,5-c]pyrimidin-7-yloxy)-3-methylphenyl)-5-((3,3-difluoro-1-methylpiperidin-4-yl)oxy)-6-(trifluoromethoxy)quinazolin-4-amine] reads 51 nM.

With `Cc1cc(Nc2ncnc3ccc(NC(=O)/C=C/[C@H]4CCCN4C)c(O[C@@H]4CCN(C)CC4(F)F)c23)ccc1Oc1cc2ncnn2cn1` [Example 95, (E)-N-(4-((4-([1,2,4]triazolo[1,5-c]pyrimidin-7-yloxy)-3-methylphenyl)amino)-5-(((R)-3,3-difluoro-1-methylpiperidin-4-yl)oxy)quinazolin-6-yl)-3-((R)-1-methylpyrrolidin-2-yl)acrylamide], the half-inhibitory concentration (IC50) is 48 nM. Take `C=CC(=O)N1CC=C(c2ccc3ncnc(Nc4ccc(Oc5cc6ncnn6cn5)c(C)c4)c3c2N2CC(N(C)C)C2)CC1` [Example 80, 1-(4-(4-((4-([1,2,4]triazolo[1,5-c]pyrimidin-7-yloxy)-3-methylphenyl)amino)-5-(3-(dimethylamino)azetidin-1-yl)quinazolin-6-yl)-3,6-dihydropyridin-1(2H)-yl)prop-2-en-1-one]: half-maximal inhibition (IC50) was put at 390 nM. In turn, `COc1ccc2ncnc(Nc3ccc(Oc4cc5ncnn5cn4)c(C)c3)c2c1N1CC2C1CCN2CC(F)F` (stereo not shown) [Example 68, N-(4-([1,2,4]triazolo[1,5-c]pyrimidin-7-yloxy)-3-methylphenyl)-5-(2-(2,2-difluoroethyl)-2,6-diazabicyclo[3.2.0]heptan-6-yl)-6-methoxyquinazolin-4-amine] showed an IC50 of 6.4 nM. Next, `COc1ccc2ncnc(Nc3ccc(Oc4cc5ncnn5cn4)c(C)c3)c2c1O[C@H]1CN(C)CC1(F)F` [Example 75, (S)—N-(4-([1,2,4]triazolo[1,5-c]pyrimidin-7-yloxy)-3-methylphenyl)-5-((4,4-difluoro-1-methylpyrrolidin-3-yl)oxy)-6-methoxyquinazolin-4-amine]: 13 nM; `C=CC(=O)N1CCC=C(c2ccc3ncnc(Nc4ccc(Oc5cc6ncnn6cn5)c(C)c4)c3c2N2CC(N(C)C)C2)C1` [Example 82, 1-(5-(4-((4-([1,2,4]triazolo[1,5-c]pyrimidin-7-yloxy)-3-methylphenyl)amino)-5-(3-(dimethylamino)azetidin-1-yl)quinazolin-6-yl)-3,6-dihydropyridin-1(2H)-yl)prop-2-en-1-one]: 179 nM; `C=CC(=O)N1CC=C(c2ccc3ncnc(Nc4ccc(Oc5cc6ncnn6cn5)c(C)c4)c3c2O[C@@H]2CCN(C)CC2(F)F)CC1` [Example 81, (R)-1-(4-(4-((4-([1,2,4]triazolo[1,5-c]pyrimidin-7-yloxy)-3-methylphenyl)amino)-5-((3,3-difluoro-1-methylpiperidin-4-yl)oxy)quinazolin-6-yl)-3,6-dihydropyridin-1(2H)-yl)prop-2-en-1-one]: 225 nM. In turn, `COc1ccc2ncnc(Nc3ccc(Oc4cc5ncnn5cn4)c(C)c3)c2c1O[C@@H]1CN(C)CC1(F)F` [Example 74, (R)—N-(4-([1,2,4]triazolo[1,5-c]pyrimidin-7-yloxy)-3-methylphenyl)-5-((4,4-difluoro-1-methylpyrrolidin-3-yl)oxy)-6-methoxyquinazolin-4-amine] displayed an IC50 of 9.9 nM.
